Data reported in patent publication US8524740B2, “Synthesis and anticancer activity of aryl and heteroaryl-quinolin derivatives” (Tairx, Inc., priority 2010, dated 2013).
pIC50: −log10 of the molar value.

Tests used:
HL-60 = experiment: MTT assay, HL-60 cells; assay type: cell-based; conditions: Homo sapiens
Protocol: (§1) MTT (3-(4,5-Dimethylthiazol-2-yl)-2,5-diphenyltetrazolium bromide) assays.^21,22 HL-60, HCT-116, Hep 3B, H460, Detroit 551 and HT29/FuR cells were treated with tested compounds for the indicated periods. After treatment, cells were washed once with PBS and incubated with MTT (Sigma, St. Louis, Mo., USA) for 2 h. The formazan precipitate was dissolved in 150 μL of DMSO, and the absorbance was measured with an ELISA reader at 570 nm.
(§2) HL-60, Hep 3B, H460, MES-SA, MES-SAID x5 and Detroit 551 cells were treated with vehicle or test compounds for 48 h. The cell growth rate was determined by MTT (3-(4,5-dimethyl-thiazol-2-yl)-2,5-diphenyltetrazoliun bromide) reduction assay.
as §1, with “assays.” for “assays.^21,22”, “HCT-116, A549,” for “HCT-116,”, “KB, Kb-VIN” for “H460, Detroit 551”, “DU145” for “HT29/FuR”
as §1, with “assays.” for “assays.^21,22”, “HL-60,” for “HL-60, HCT-116,”, “H460, A498, Colo205 and” for “H460,”, “551” for “551 and HT29/FuR”

Hep3B = experiment: MTT assay, Hep 3B cells; assay type: cell-based; conditions: Homo sapiens
Protocol: as §1, §2
as §1, with “assays.” for “assays.^21,22”, “HCT-116, A549,” for “HCT-116,”, “KB, Kb-VIN” for “H460, Detroit 551”, “DU145” for “HT29/FuR”
as §1, with “assays.” for “assays.^21,22”, “HL-60,” for “HL-60, HCT-116,”, “H460, A498, Colo205 and” for “H460,”, “551” for “551 and HT29/FuR”

H460 = experiment: MTT assay, H460 cells; assay type: cell-based; conditions: Homo sapiens, NCI-H460
Protocol: as §1, §2
as §1, with “assays.” for “assays.^21,22”, “HL-60,” for “HL-60, HCT-116,”, “H460, A498, Colo205 and” for “H460,”, “551” for “551 and HT29/FuR”

Detroit 551 = experiment: MTT assay, Detroit 551 normal human cells; assay type: cell-based; conditions: for pIC50: Detroit 551; for toxicity toward Detroit 551 normal human cell (in words): Table 1 compounds
Protocol: as §1, §2
as §1, with “assays.” for “assays.^21,22”, “HL-60,” for “HL-60, HCT-116,”, “H460, A498, Colo205 and” for “H460,”, “551” for “551 and HT29/FuR”

HCT116 = experiment: MTT assay, HCT-116 cells; assay type: cell-based; conditions: Homo sapiens, Table 1, 48 h
Protocol: as §1
as §1, with “assays.” for “assays.^21,22”, “HCT-116, A549,” for “HCT-116,”, “KB, Kb-VIN” for “H460, Detroit 551”, “DU145” for “HT29/FuR”

HT29/5FuR = experiment: MTT assay, HT29/5FuR cells; assay type: cell-based; conditions: Homo sapiens, HT-29, Table 1, 48 h
Protocol: as §1

[1] = tested on: HL-60, HCT-116, Hep3B, H-460; experiment: Cytotoxicity screen (MTT) against human cancer cell lines, results in words; assay type: cell-based; conditions: comparison within sub-series or with CHM-2133
Protocol: as §1, §2

[2] = Homo sapiens, Table 3, B-2 series, 48 hrs
[3] = Table 1, 48 h, MTT, normal human cell
[4] = Homo sapiens, Table 2, B-1 series, 48 hrs
[5] = Homo sapiens, Table 4, B-3 series, 48 hrs

Structure (SMILES)	melting point	pIC50 (HL-60; Table 1, 48 h, MTT)	pIC50 (HCT116)	pIC50 (Hep3B; Table 1, 48 h, MTT)	pIC50 (H460; Table 1, 48 h, MTT)	pIC50 (Detroit 551; [3])	pIC50 (HT29/5FuR)	cytotoxicity (in words) [1]	also measured
COc1ccc(C2=Nc3ccc(N4CCCC4)cc3C(=O)C2)cc1 [Compound 133, 2-(4-Methoxyphenyl)-6-pyrrolidinoquinolin-4-one]	312 to 313 °C	–	–	–	–	–	–	–	pIC50 (HL-60; Table 3, B-2 series, 48 hrs): < 6.00; pIC50 (Hep3B; Table 3, B-2 series, 48 hrs): < 6.00; pIC50 (H460; Table 3, B-2 series, 48 hrs): < 6.00; pIC50 (Detroit 551; [2]): < 6.00
COc1ccc2c(c1OC)C(=O)CC(c1cccc(F)c1)=N2 [Compound 17, 2-(3-Fluorophenyl)-5,6-dimethoxyquinolin-4-one]	190 to 192 °C	5.89	5.92	5.59	5.46	4.00	5.71	strongest cytotoxicity	–
COc1cc2c(cc1O)N=C(c1cccc(F)c1)CC2=O [Compound 44, 2-(3-Fluorophenyl)-7-hydroxy-6-methoxyquinolin-4-one]	326 to 328 °C	6.05	5.96	5.28	5.32	5.00	6.52	greater cytotoxicity	–
COc1ccc(O)cc1C1=Nc2ccc(N3CCOCC3)cc2C(=O)C1 [Compound 143a, 2-(5-hydroxy-2-methoxyphenyl)-6-morpholinoquinolin-4-one]	–	–	–	–	–	–	–	–	pIC50 (HL-60; Table 2, B-1 series, 48 hrs): 4.03; pIC50 (Hep3B; Table 2, B-1 series, 48 hrs): < 4.00; pIC50 (H460; Table 2, B-1 series, 48 hrs): 4.07; pIC50 (Detroit 551; [4]): < 4.00
COc1ccc(O)cc1C1=Nc2ccc(N3CCCC3)cc2C(=O)C1 [Compound 143b, 2-(5-hydroxy-2-methoxyphenyl)-6-pyrrolidinoquinolin-4-one]	–	–	–	–	–	–	–	–	pIC50 (HL-60; Table 2, B-1 series, 48 hrs): 4.25; pIC50 (Hep3B; Table 2, B-1 series, 48 hrs): 4.23; pIC50 (H460; Table 2, B-1 series, 48 hrs): < 4.00; pIC50 (Detroit 551; [4]): < 4.00
O=C1CC(c2cccc(F)c2)=Nc2ccc3c(c21)OCO3 [Compound 20, 2-(3-Fluorophenyl)-5,6-methylenedioxyquinolin-4-one]	286 to 288 °C	6.15	5.60	5.62	5.49	< 5.30	6.09	significant cytotoxicity	–
O=C1CC(c2ccc(O)cc2)=Nc2ccc(N3CCCC3)cc21 [Compound 141, 2-(4-Hydroxyphenyl)-6-pyrrolidinoquinolin-4-one]	304 to 306 °C	–	–	–	–	–	–	–	pIC50 (HL-60; Table 3, B-2 series, 48 hrs): 7.40; pIC50 (Hep3B; Table 3, B-2 series, 48 hrs): 5.96; pIC50 (H460; Table 3, B-2 series, 48 hrs): 5.81; pIC50 (Detroit 551; [2]): < 4.60
COc1ccc2c(c1O)C(=O)CC(c1ccccc1F)=N2 [Compound 37, 2-(2-Fluorophenyl)-5-hydroxy-6-methoxyquinolin-4-one]	–	7.17	7.30	7.30	6.96	5.00	6.70	greater cytotoxicity	toxicity toward Detroit 551 normal human cell (in words) (Detroit 551): lower toxicity
O=C1CC(c2ccccc2F)=Nc2ccc3c(c21)OCO3 [Compound 19, 2-(2-Fluorophenyl)-5,6-methylenedioxyquinolin-4-one]	282 to 283 °C	6.00	5.68	5.72	5.35	< 5.00	6.16	significant cytotoxicity	–
COc1ccc2c(c1OC)C(=O)CC(c1ccc(F)cc1)=N2 [Compound 18, 2-(4-Fluorophenyl)-5,6-dimethoxyquinolin-4-one]	227 to 229 °C	5.70	< 4.70	< 4.70	< 4.70	< 4.70	5.69	weaker	–
COc1ccc2c(c1OC)C(=O)CC(c1ccccc1F)=N2 [Compound 16, 2-(2-Fluorophenyl)-5,6-dimethoxyquinolin-4-one]	–	5.43	< 4.70	< 4.70	< 4.70	< 4.70	5.69	–	–
COc1cc(C2=Nc3ccc(N4CCCC4)cc3C(=O)C2)ccc1O [Compound 144, 2-(4-Hydroxy-3-methoxyphenyl)-6-pyrrolidinoquinolin-4-one]	310 to 312 °C	–	–	–	–	–	–	–	pIC50 (HL-60; Table 3, B-2 series, 48 hrs): 7.42; pIC50 (Hep3B; Table 3, B-2 series, 48 hrs): 6.42; pIC50 (H460; Table 3, B-2 series, 48 hrs): 6.25; pIC50 (Detroit 551; [2]): < 5.60
COc1cc(C2=Nc3ccc(N4CCOCC4)cc3C(=O)C2)ccc1O [Compound 143, 2-(4-Hydroxy-3-methoxyphenyl)-6-morpholinoquinolin-4-one]	297 to 299 °C	–	–	–	–	–	–	–	pIC50 (HL-60; Table 2, B-1 series, 48 hrs): 5.41; pIC50 (Hep3B; Table 2, B-1 series, 48 hrs): 4.30; pIC50 (H460; Table 2, B-1 series, 48 hrs): 4.30; pIC50 (Detroit 551; [4]): 4.30
COc1ccc2c(c1O)C(=O)CC(c1cccc(F)c1)=N2 [Compound 38, 2-(3-Fluorophenyl)-5-hydroxy-6-methoxyquinolin-4-one]	–	7.41	7.14	7.11	7.06	< 4.30	6.59	greater cytotoxicity	toxicity toward Detroit 551 normal human cell (in words) (Detroit 551): lower toxicity
O=C1CC(c2cccc(F)c2)=Nc2ccc(O)c(O)c21 [Compound 41, 2-(3-Fluorophenyl)-5,6-dihydroxyquinolin-4-one]	–	6.52	5.09	5.16	5.21	< 4.00	6.28	greater cytotoxicity	–
CN(C)c1ccc2c(c1)C(=O)CC(c1ccccc1O)=N2 [Compound 136, 2-(2-Hydroxyphenyl)-6-dimethylaminoquinolin-4-one]	296 to 298 °C	–	–	–	–	–	–	–	pIC50 (HL-60; Table 4, B-3 series, 48 hrs): 5.52; pIC50 (Hep3B; Table 4, B-3 series, 48 hrs): 5.15; pIC50 (H460; Table 4, B-3 series, 48 hrs): 5.27; pIC50 (Detroit 551; [5]): 4.00
O=C1CC(c2ccc(O)cc2)=Nc2ccc(N3CCOCC3)cc21 [Compound 140, 2-(4-Hydroxyphenyl)-6-morpholinoquinolin-4-one]	340 to 342 °C	–	–	–	–	–	–	–	pIC50 (HL-60; Table 2, B-1 series, 48 hrs): 5.79; pIC50 (Hep3B; Table 2, B-1 series, 48 hrs): < 5.00; pIC50 (H460; Table 2, B-1 series, 48 hrs): < 5.00
COc1ccc(C2=Nc3ccc(N4CCOCC4)cc3C(=O)C2)cc1 [Compound 132, 2-(4-Methoxyphenyl)-6-morpholinoquinolin-4-one]	302 to 304 °C	–	–	–	–	–	–	–	pIC50 (HL-60; Table 2, B-1 series, 48 hrs): < 5.60; pIC50 (Hep3B; Table 2, B-1 series, 48 hrs): < 5.60; pIC50 (H460; Table 2, B-1 series, 48 hrs): < 5.60; pIC50 (Detroit 551; [4]): < 5.60
O=C1CC(c2ccc(F)cc2)=Nc2ccc(O)c(O)c21 [Compound 42, 2-(4-Fluorophenyl)-5,6-dihydroxyquinolin-4-one]	–	4.41	< 4.00	4.00	4.00	< 4.00	–	weaker	–
CN(C)c1ccc2c(c1)C(=O)CC(c1ccc(O)cc1)=N2 [Compound 142, 2-(4-Hydroxyphenyl)-6-dimethylaminoquinolin-4-one]	321 to 323 °C	–	–	–	–	–	–	–	pIC50 (HL-60; Table 4, B-3 series, 48 hrs): 6.19; pIC50 (Hep3B; Table 4, B-3 series, 48 hrs): 5.05; pIC50 (H460; Table 4, B-3 series, 48 hrs): 6.25; pIC50 (Detroit 551; [5]): 4.12
COc1ccc2c(c1O)C(=O)CC(c1ccc(F)cc1)=N2 [Compound 39, 2-(4-Fluorophenyl)-5-hydroxy-6-methoxyquinolin-4-one]	–	5.74	5.62	4.96	5.06	< 4.60	6.48	weaker	–
O=C1CC(c2ccccc2F)=Nc2ccc(O)c(O)c21 [Compound 40, 2-(2-Fluorophenyl)-5,6-dihydroxyquinolin-4-one]	–	6.30	6.22	5.41	5.39	< 4.00	5.79	greater cytotoxicity	–
